Reference: patent EP1401829B1, “NOVEL HETEROCYCLIC ANTIBACTERIAL COMPOUNDS” (Microbiotix, Inc., priority 2001, dated 2002)
Marks after values point to notes of the source that are not given here.

What was measured:
[1] = test system: Enterococcus faecalis (ATCC 29212); experiment: In vivo efficacy of Compound 70 in mouse models; settings: mice, 3x10^7 CFU/mouse + 5% Mucin
Method: (§1) Swiss Webster mice, ca. 20 g each, were infected with Staphylococcus aureus (Smith strain) by the intraperitoneal route. Test compounds (2, 4, 5, 6, 7, 8, 10, 12) were dissolved in 10% dimethylsulfoxide in peanut oil to a concentration of 2 mg/ml. Vancomycin was used as positive control drug (i.e., protection from lethal infection). Fifteen minutes after infection, test compounds, vancomycin, or vehicle alone were given intraperitoneally to groups of five mice each. Animals were monitored for three days, and the number of mice surviving was tabulated for each treatment.
(§2) Using the same basic procedure as described above, the in vivo efficacy of Compound 70 was also evaluated at various doses in mice infected with S. aureaus (Smith), MRSA 1094, Enterococcus faecalis, or vancomycin-resistant Enterococcus faecalis strain VRE 700802. […] Negative controls were mice infected that received no treatment. Mucin was employed as an adjuvant to facilitate bacterial infection in mice, where indicated.

[2] = test system: Staphylococcus aureus (Smith); experiment: In vivo efficacy of Compound 70 in mouse models; settings: mice, 10^8 CFU/mouse, regimen 1 (t=0)
Method: as §1, §2

[3] = Overt toxicity observed in mouse infection models; assay type: in vivo; settings: mice; at therapeutic doses (doses providing survival above no treatment control)
Method: as §2

For `CCc1cc(Nc2cc(=O)n(CCCCN3CCN(c4c(F)cc5c(=O)c(C(=O)O)cn(C6CC6)c5c4F)CC3C)c(=O)[nH]2)ccc1C` (stereo not shown) [Compound 70, 3-{4-[1-(1-cyclopropyl-3-carboxy-4-oxo-6,8-difluoro-7-quinolyl)-3-methyl-4-piperazinyl]butyl}-6-(3-ethyl-4-methylanilino)uracil], the “% Survival at 72 hours” value ([1]; dose 25 mg/kg, regimen 1 (t=0)) was 40% (2/5), the “% Survival at 72 hours” value ([1]; dose 25 mg/kg, regimen 2 (t=0,2)) was 40% (2/5) and the “% Survival at 72 hours” value ([1]; dose 50 mg/kg, regimen 1 (t=0)) was 60% (3/5). The “% Survival at 72 hours” value ([1]; dose 50 mg/kg, regimen 2 (t=0,2)) was 80% (8/10)**, the “% Survival at 72 hours” value ([1]; dose 75 mg/kg, regimen 1 (t=0)) was 80% (4/5) and the “% Survival at 72 hours” value ([2]; dose 3.125 mg/kg) was 0% (0/5). The “% Survival at 72 hours” value ([2]; dose 12.5 mg/kg) was 40% (6/15), the “% Survival at 72 hours” value ([2]; dose 25 mg/kg) was 100% (20/20)** and the “% Survival at 72 hours” value ([2]; dose 50 mg/kg) was 100% (10/10)**. For the same molecule, the overt toxicity [3] was “no overt toxicity”.
